# From US12514883B2, “Compositions and methods for modulating lipid and steroid metabolism” (The Regents of the University of California, priority 2019, dated 2026)
# What was measured:
# [1] = Fecal 5-HT levels after 5-HT in drinking water (ELISA); type: in vivo, mice
# Protocol: (§1) Water was supplemented with 5-HT (Sigma Aldrich) at 1.5 mg/ml provided ad libitum to mice for 2 weeks. The amount of water consumed and mouse weight were measured on days 3, 7, 10 and 14 of treatment. Mice were sacrificed one day after treatment for 5-HT assays and fecal 16S rDNA profiling was conducted as described below.
# Blood samples were collected by cardiac puncture and spun through SST vacutainers (Becton Dickinson) for serum separation. […] Serotonin levels were detected by ELISA according to the manufacturer's instructions (Eagle Biosciences). Readings from tissue samples were normalized to total protein content as detected by BCA assay or the 660 nm Protein Assay (Thermo Pierce).
# SPF mice were treated with ampicillin, gentamicin, neomycin and vancomycin (AGNV) in their drinking water at 0.5 g/L for 4 days. […] 5-HT drinking water concentration was determined by calculating the same molar concentration as Flx in drinking water. […] Three days after the final gavage, mice were euthanized by CO2 and the small and large intestines were collected for fluorescence in situ hybridization (FISH) as described below and lumenal contents from the small and large intestines were harvested for 16S rDNA sequencing. […] Tissues were collected and analysed 3 d after the final gavage. […]
# [2] = tested on: gut microbiota (Clostridia); test: Fecal 16S rDNA microbiota profiling after oral 5-HT supplementation; type: in vivo, mice
# Protocol: as §1
# (§2) Bacterial genomic DNA was extracted from mouse fecal samples using the MoBio PowerSoil Kit. The library was generated according to methods adapted from Capraso J. G., et al., PNAS 108 Suppl 1, 4516-4522 (2011). The V4 regions of the 16S rDNA gene were PCR amplified using individually barcoded universal primers and 30 ng of the extracted genomic DNA. The PCR reaction was set up in triplicate, and the PCR product was purified using the Qiaquick PCR purification kit (Qiagen). In total, 250 ng of purified PCR product from each sample was pooled and sequenced by Laragen, Inc. using the Illumina MiSeq platform and 2×250 bp reagent kit for paired-end sequencing. Operational taxonomic units (OTUs) were chosen by open reference OTU picking based on 97% sequence similarity to the Greengenes 13_5 database. Taxonomy assignment and rarefaction were performed using QIIME1.8.0. Metagenomes were inferred from closed reference OTU tables using PICRUSt.
# [3] = tested on: Turicibacter sanguinis MOL361; test: T. sanguinis growth curve and viability; type: cell-based
# Protocol: Scale bars: 10 μm. […] Scale bar denotes 100 um.
# Cell density of T. sanguinis at 6, 12, 18, 30, 36, 45 and 48 hours of growth in the presence of 200 uM 5-HT, Flx or both 5-HT and Flx. Treatments were added at the start of culture (e.g. t=0 h).
# (§3) Turicibacter sanguinis MOL361 (DSM-14220, DSMZ) was grown in Schaedler's Broth (BD Biosciences) in an anaerobic chamber of 10% carbon dioxide, 5% hydrogen, and balanced nitrogen. Bacteroides thetaiotaomicron (ATCC 29148) was grown in Brain Heart Infusion media (BD Biosciences) supplemented with 5 ug/ml hemin (Frontier Scientific) and 0.5 ug/ml vitamin K1 (Sigma Aldrich) under the same anaerobic conditions. Mouse- and human-derived spore-forming bacterial consortia were isolated by chloroform treatment and propagated in mice.
# [4] = tested on: T. sanguinis; test: APP+ uptake assay in T. sanguinis; type: cell-based, Turicibacter sanguinis; conditions: 200 uM pre-treatment for 30 min
# Protocol: (§4) T. sanguinis and B. theta were cultured anaerobically as described above and subcultured for 15-17 h to reach the stationaryphase. Bacterial APP+ transport activity was measured according to the manufacturer's instructions using the Neurotransmitter Transporter Uptake Assay Kit (Molecular Devices). […] Then cells were treated with APP+ for 4 hours at 37° C. Intracellular fluorescence signal was measured at 520 nm using a multimodal plate reader (Biotek Synergy H1). Bacterial suspensions were mounted on slides and imaged using an epifluorescence microscope (EVOS). Images of B. theta were brightened by 90% to resolve fluorescence signal.
# [5] = tested on: CUW_0748; test: APP+ uptake in B. thetaiotaomicron expressing CUW_0748; type: cell-based
# Protocol: as §4
# [6] = tested on: CUW_0748; test: [3H]5-HT uptake in B. thetaiotaomicron expressing CUW_0748; type: cell-based
# Protocol: The vector was transformed into E. coli with selection using 100 ug/ml ampicillin and conjugated into B. theta using the E. coli helper plasmid RK231 with 50 ug/ml kanamycin selection. E. coli was killed using 200 ug/ml gentamicin and transconjugant strains were selected using 5 ug/ml erythromycin. Successful conjugation and gene expression were confirmed by PCR and qPCR for CUW_0748 in DNA and RNA extracted from B. theta clones. T. sanguinis or B. theta were cultured anaerobically as described above and subcultured for 15-17 h to reach the stationary phase. […] For T. sanguinis, all uptake reactions were performed at room temperature. For B. theta, uptake reactions were performed at either room temperature or 37° C. Uptake reactions were terminated by washing in ice cold Kreb-Ringer's buffer. Washed T. sanguinis was trapped through 0.45 um PVDF filters on MultiScreenHTS plates connected to a vacuum manifold (EMD Millipore). For B. theta, washed cells were either trapped through 0.45-μm PVDF filters or lysed by incubating in TE buffer plus triton and lysozyme. Extracted filters or lysed cells were incubated in 4 ml Filter Count scintillation fluid (Perkin Elmer) for 1 hour at room temp, and radioactivity was measured using a liquid scintillation counter (Beckman LS6500).
# [7] = tested on: T. sanguinis; test: Bacterial transcriptomic analysis of T. sanguinis; type: cell-based, Turicibacter sanguinis
# Protocol: T. sanguinis was cultured anaerobically as described above and subcultured to mid-log-phase. […] Bacteria were washed with PBS and lysed in TE buffer containing 1.2% Triton X-100 and 15 mg/ml lysozyme. RNA was extracted using the RNAeasy Mini kit with on-column genomic DNA-digest (Qiagen). cDNA synthesis was performed using the qScript cDNA synthesis kit (Quantabio). RNA quality of RIN>8.0 was confirmed using the 4200 Tapestation system (Agilent). rRNA were removed with the Ribo-Zero Bacterial kit (Illumina), RNA was prepared using the TruSeq Stranded RNA kit (Illumina) and 2×75 bp paired end reads were sequenced using the Illumina HiSeq platform by the UCLA Neuroscience Genomics Core. The bacterial RNAseq analysis package Rockhopper was used for quality filtering, mapping against the T. sanguinis PC909 genome and differential expression analysis. […] Heatmaps containing differentially expressed genes with adjusted p<0.05 and coefficient of variation (standard deviation/mean)<3 were generated using the pheatmap package for R. GO term enrichment analysis of differentially expressed genes with adjusted p<0.05 was conducted using DAVID. Functional protein networks were generated with differentially expressed genes with adjusted p<0.05 using STRING. Bacterial FM 4-64 staining and imaging. […] Cells were washed with PBS, fixed in 4% paraformaldehyde, and stained with FM4-64 (5 μg ml−1) and 4′,6-diamidino-2-phenylindole (DAPI; 0.2 μg ml−1) according to the manufacturer's instructions. Cells were wet-mounted on glass slides and cover slips. Images were acquired at 63× using the Zeiss LSM 780 confocal microscope. Images were analysed using Fiji software51 by a researcher blinded to the experimental group. FM 4-64 puncta were counted manually based on circularity and fluorescence intensity. Counts were normalized to cell area, as determined by thresholding of DAPI staining.
# [8] = tested on: T. sanguinis MOL361; test: Turicibacter colonization of antibiotic-treated mice (FISH, 16S rDNA); type: in vivo
# [9] = tested on: T. sanguinis MOL361; test: 5-HT levels in culture supernatant of T. sanguinis grown in Schaedler broth; type: cell-based, Turicibacter sanguinis; conditions: 200 uM fluoxetine, 0-36 hours of growth
# Protocol: as §3
# [10] = tested on: T. sanguinis; test: [3H]NE uptake assay in T. sanguinis; type: cell-based, Turicibacter sanguinis; conditions: 30 min pre-treatment, 200 uM fluoxetine
# Protocol: T. sanguinis or B. theta were cultured anaerobically as described above and subcultured for 15-17 h to reach the stationary phase. […] Cells were then incubated with 1 μM tritiated 5-HT (plus 0-500 μM unlabelled 5-HT for dose-dependent assays), NE or Trp (PerkinElmer). For T. sanguinis, all uptake reactions were performed at room temperature. For B. theta, uptake reactions were performed at either room temperature or 37° C. Uptake reactions were terminated by washing in ice cold Kreb-Ringer's buffer. Washed T. sanguinis was trapped through 0.45 um PVDF filters on MultiScreenHTS plates connected to a vacuum manifold (EMD Millipore). For B. theta, washed cells were either trapped through 0.45-μm PVDF filters or lysed by incubating in TE buffer plus triton and lysozyme. Extracted filters or lysed cells were incubated in 4 ml Filter Count scintillation fluid (Perkin Elmer) for 1 hour at room temp, and radioactivity was measured using a liquid scintillation counter (Beckman LS6500).
# [11] = tested on: fecal microbiota; test: Fluoxetine treatment of SPF mice, fecal 16S rDNA sequencing; type: in vivo
# Protocol: as §2
# Fecal samples were harvested on day 0, 1, 4, 7 or 14 of treatment as indicated in figure legends and processed for 16S rDNA sequencing as described above.
# [12] = Lipid clinical chemistry analysis of serum; type: in vivo; conditions: antibiotic-treated mice gavaged with T. sanguinis pretreated with 200 μM 5-HT+Flx
# From the text: Serum samples were collected from SPF, germfree, Turicibacter-monocolonized or Turicibacter-enriched mice and submitted to Charles River Clinical Pathology for analysis of the lipid species, including total cholesterol, free fatty acids, high-density lipoprotein, low-density lipoprotein and total triglycerides.
# [13] = tested on: T. sanguinis; test: [3H]5-HT uptake assay in T. sanguinis; type: cell-based, Turicibacter sanguinis; conditions: 30 min pre-treatment
# [14] = SPF mice gavaged with fluoxetine
structure (smiles),measurement,setting,value
"NCCc1c[nH]c2ccc(O)cc12 [5-HT, 5-hydroxytryptamine]",increase of fecal 5-HT levels relative to vehicle-treated controls,"[1]; SPF mice, 1.5 mg/ml 5-HT in the drinking water for 2 weeks",642 fold
same,elevation of fecal 5-HT levels over vehicle,"[1]; antibiotic-treated mice, 5-HT 24 μg/ml in drinking water",approximately 6 fold
same,"combined relative abundance of Clostridiales, Clostridiaceae, Ruminococcus and Ruminococcaceae (mean±S.E.M.)","[2]; 5-HT-supplemented mice, fecal microbiota",86.2±5.8%
same,"increase of combined relative abundance of Clostridiales, Clostridiaceae, Ruminococcus and Ruminococcaceae","[2]; SPF mice, 1.5 mg/ml 5-HT in drinking water 2 weeks, vs SPF mice",8.4 fold
same,effect on species of Clostridia in fecal microbiota,"[2]; oral 5-HT supplementation, SPF mice",substantially enriched
same,T. sanguinis survival/viability after short-term (acute) exposure,"[3]; 4 h exposure, 200 μM",not affected
same,effect on APP+ uptake (import) by T. sanguinis,[4],partially decreased
same,effect on APP+ uptake conferred by CUW_0748,[5],inhibited
same,effect on 1 μM [3H]5-HT uptake conferred by CUW_0748,[6],inhibited
same,effect on T. sanguinis gene expression pathways vs vehicle,"[7]; 200 uM 5-HT, 4 hr","downregulated the expression of genes that clustered into pathways for cell differentiation, morphogenesis and sporulation"
same,number of bacterial genes with significantly altered expression,"[7]; 4 hr exposure, 200 uM, vs vehicle",71 genes
same,differentially expressed genes (q<0.05) downregulated relative to vehicle,[7]; T. sanguinis treated with 5-HT,54 genes
same,T. sanguinis levels/colonization in the small intestine,"[8]; antibiotic-treated SPF mice, bacterial pre-treatment plus same treatment in drinking water",detectable T. sanguinis colonization
same,"T. sanguinis competitive colonization, bacterial pre-treatment only","[8]; antibiotic-treated mice, no supplementation in drinking water",promoted its competitive colonization
CNCCC(Oc1ccc(C(F)(F)F)cc1)c1ccccc1 (centres unmarked) [fluoxetine],effect on decrease of 5-HT levels in the media over time,[9],prevented
same,effect on T. sanguinis growth over long-term culture,"[3]; 200 uM, Schaedler broth, up to 48 hours",cytostatic effects
same,effect on APP+ uptake (import) by T. sanguinis,[4],partially decreased
same,effect on bacterial uptake of norepinephrine ([3H]NE),[10],no effect
same,change in T. sanguinis gene expression in the absence of 5-HT,[7]; fluoxetine alone,little change
same,effect on T. sanguinis gene expression compared with 5-HT-treated controls,"[7]; fluoxetine with 5-HT, 4 hr","upregulated the expression of genes encoding proteins relevant to efflux transporters, ABC transporters and sporulation"
same,Turicibacter in fecal microbiota,[11]; SPF mice gavaged with 10 mg/kg fluoxetine,decreased
same,Clostridiaceae in fecal microbiota,[11]; [14],decreased
same,bacterial alpha diversity of fecal microbiota,[11]; [14],no significant differences
same,serum triglyceride levels compared with mice colonized with vehicle-treated T. sanguinis,[12],increased
NC[C@H](O)c1ccc(O)c(O)c1 [norepinephrine],effect on APP+ uptake (import) by T. sanguinis,[4],"modest, but not statistically significant, effect"
COc1cc2c(cc1OC)C1CC(=O)C(CC(C)C)CN1CC2 (centres unmarked) [tetrabenazine],effect on [3H]5-HT uptake by T. sanguinis,[13],not observed
